Results taken from ChEMBL document CHEMBL1150345 (J Med Chem, 2008).
pKi: −log10 of the molar value.

What follows are compounds tested against T1, Histamine H4 receptor (Homo sapiens, UniProt Q9H3N8) (assay: biochemical). Conditions: not given.
Format: cell-based, SK-N-MC

T1 sequence (Q9H3N8 whole entry): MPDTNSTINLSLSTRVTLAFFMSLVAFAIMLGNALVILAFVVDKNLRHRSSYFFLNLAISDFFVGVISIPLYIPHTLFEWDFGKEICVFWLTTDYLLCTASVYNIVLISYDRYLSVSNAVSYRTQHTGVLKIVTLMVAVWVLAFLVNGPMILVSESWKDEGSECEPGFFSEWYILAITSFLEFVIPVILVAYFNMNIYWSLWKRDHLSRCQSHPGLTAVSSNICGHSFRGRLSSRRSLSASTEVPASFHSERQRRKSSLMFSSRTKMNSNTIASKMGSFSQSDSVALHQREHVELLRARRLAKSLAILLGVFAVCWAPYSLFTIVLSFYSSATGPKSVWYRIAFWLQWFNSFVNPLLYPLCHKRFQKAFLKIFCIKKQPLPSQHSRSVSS

SMILES	pKi
Cc1cc(C)nc(N=C(N)NCCc2cnc[nH]2)n1	7.07
C[C@@H](N)Cc1c[nH]cn1	6.74
CCOC(=O)c1ccc(NC2=CC(=O)/C(=N\NC(=N)N)c3ccccc32)cc1	6.66
NC(=NCc1ccc(Cl)cc1)SCCCc1cnc[nH]1 [CLOBENPROPIT]	8.30
N=C(N)SCCc1cnc[nH]1 [IMETIT]	8.44
C/N=C(\N)N/N=C(/C)c1ccc2sc3ccc(/C(C)=N\N/C(N)=N/C)cc3c2c1	5.83
N=C(N)NCc1cccc(CNC(=N)N)n1	5.91
CC(/C=C(\C)NNC(=N)N)=N/NC(=N)N	6.05
NC(=NCCc1ccc(I)cc1)SCCCc1cnc[nH]1 [IODOPHENPROPIT]	8.11
CN(C)CCCSC(=N)N	7.05

The compounds below were run against T1, Histamine H4 receptor (assay: Displacement of [3H]histamine from human histamine H4 receptor expressed in […] cells at 5 uM). Conditions: SK-N-MC.
Format: cell-based

SMILES	Activity [%]
N=C(N)NN/C(=C(\O)c1ccccc1)c1ccccc1	34.7
Cc1cc(C)nc(N/C(N)=N/CCc2c[nH]cn2)n1	95.8
C[n+]1cccc(NC(=O)c2ccc(NC(=O)c3ccc(C(=O)Nc4ccc(NC(=N)N)cc4)cc3)cc2)c1	26
N=C(N)NN=C1C=CC(=NNC(=N)N)C=C1	44
N=C(N)NC(=N)Nc1ccc(Cl)cc1C(=O)c1ccccc1	37.1
CCOC(=O)c1ccc(NC2=CC(=O)/C(=N\NC(=N)N)c3ccccc32)cc1	92.6
CC(/C=C/NNC(=N)N)=N/NC(=N)N	33.9
CN(CCN(C)c1ccc(N)cc1)c1ccc(N)cc1	34.3
CN(C)CCCNC(=O)/C(=C\c1cn(-c2ccccc2)nc1-c1ccc(Br)cc1)NC(=O)c1ccccc1	29.4
CN1CCN(C(=O)c2cccc(Nc3nc(-c4ccccc4)c4cc(Br)ccc4n3)c2)CC1	23
C/N=C(\N)N/N=C(/C)c1ccc2sc3ccc(/C(C)=N\N/C(N)=N/C)cc3c2c1	72
N=C(N)NCc1cccc(CNC(=N)N)n1	67.8
CC(/C=C(\C)NNC(=N)N)=N/NC(=N)N	64.3
NCCNC(=O)c1cc2ccccc2[nH]1	46.9
CN1CCN(c2ccccc2NC(=S)NC(=O)c2cc3ccccc3o2)CC1	50.3
COc1cccc(C2NCCc3[nH]cnc32)c1 (stereo unspecified)	20.9
